Measurements taken from US20260101898A1, “SULFONAMIDE COMPOUND AND HARMFUL-ARTHROPOD CONTROLLING COMPOSITION CONTAINING SAME” (SUMITOMO CHEMICAL COMPANY, LIMITED, priority 2022, published 2026).

Assays:
Format in all cases: in vivo
[1] = tested on: diamondback moth (Plutella xylostella); experiment: Test Method 10: sprayed cabbage seedling, third-instar larvae of diamondback moth (formulation per Formulation Example 5); settings: 120 h, spray 20 mL/seedling, after 5 days
Method: (§1) Each test compound is made to a formulation according to a similar method to that described in the Formulation Example 5, and thereto is added water containing 0.03 v/v % of Shindain (registered trademark) to prepare a diluted solution containing a prescribed concentration of the test compound.
(§2) Cabbage (Brassicae oleracea) seedling (on the developmental stage of the third to fourth true leaf) is planted in a container, and the diluted solutions are sprayed to the seedling at a ratio of 20 mL/seedling. Thereafter, ten of third-instar larvae of diamondback moth (Plutella xylostella) are released. After 5 days, the number of the surviving insects is counted, and the mortality of insects is calculated by the following equation.

[2] = tested on: diamondback moth (Plutella xylostella); experiment: Test Method 4: sprayed cabbage seedling, second-instar larvae of diamondback moth; settings: 120 h, spray 20 mL/seedling, after 5 days
Method: (§3) Each test compound is made to a formulation according to a similar method to that described in the Formulation Example 1, and thereto is added water containing 0.03 v/v % of Shindain (registered trademark) to prepare a diluted solution containing a prescribed concentration of the test compound.
(§4) Cabbage (Brassicae oleracea) seedling (on the developmental stage of the second to third true leaf) is planted in a container, and the diluted solutions are sprayed to the seedling at a ratio of 20 mL/seedling. Thereafter, the aerial part of the seedling is cut out and then is installed into a container in which a filter paper is placed at the bottom of the container. Five of second-instar larvae of diamondback moth (Plutella xylostella) are released into the container. After 5 days, the number of the surviving insects is counted, and the mortality of insects is calculated by the following equation.

[3] = tested on: cotton aphids (Aphis gossypii); experiment: Test Method 2: soil drench of cucumber seedling, cotton aphids released after 7 days; settings: drench 5 mL/seedling, examined after 6 days
Method: Each test compound is made to a formulation according to a similar method to that described in the Formulation Example 5, and thereto is added water to prepare a diluted solution containing a prescribed concentration of the test compound. Cucumber (Cucumis sativus) seedling (on the developmental stage of the second true leaf) is planted in a container, and the diluted solutions are drenched to the bottom of the seedling at a ratio of 5 mL/seedling. After 7 days, approximately 30 cotton aphids (Aphis gossypii) (all developmental stages of life) are released onto the leaf of the seedling. After 6 days, the number of the surviving insects is examined and the controlling value is calculated by the following equation. [formula] wherein the symbols in the formula represent the following descriptions. • Cb: Number of the test insects in untreated group; • Cai: Number of the surviving insects at the time of the investigation in untreated group; • Tb: Number of the test insects in treated group; • Tai: Number of the surviving insects at the time of the investigation in treated group; Here the “untreated group” represents a group where the similar treatment procedure to that of the treated group except not using the test compound is done.

[4] = tested on: common cutworm (Spodoptera litura); experiment: Test Method 9: sprayed cabbage seedling, third-instar larvae of common cutworm (formulation per Formulation Example 5); settings: 144 h, spray 20 mL/seedling, after 6 days
Method: as §1
as §2, with “common cutworm (Spodoptera litura)” for “diamondback moth (Plutella xylostella)”, “6” for “5”

[5] = tested on: common cutworm (Spodoptera litura); experiment: Test Method 3: sprayed cabbage seedling, second-instar larvae of common cutworm; settings: 120 h, spray 20 mL/seedling, after 5 days
Method: as §3
as §4, with “common cutworm (Spodoptera litura)” for “diamondback moth (Plutella xylostella)”

[6] = tested on: Western corn rootworm (Diabrotica virgifera virgifera); experiment: Test Method 5: corn seedling dip, second-instar larvae of Western corn rootworm; settings: 120 h, corn seedling immersed 30 seconds, after 5 days
Method: Each 1 mg of the test compounds is dissolved in 50 μL of a mixed solution consisting of 5% of polyoxyethylene sorbitan mono-cocoate and 95% of acetone by volume ratio. Thereto is added water containing 0.03% by volume of Shindain (registered trademark) to prepare a diluted solution containing a prescribed concentration of the test compound.
A young seedling of corn (Zea mays) is immersed into the diluted solution for 30 seconds. Thereafter, two seedlings are installed in a plastic petri dish ([…]), and 10 of second-instar larvae of Western corn rootworm (Diabrotica virgifera virgifera) are released into the dish. After 5 days, the number of the dead insects is counted, and the mortality of insects is calculated by the following equation.

[7] = tested on: German cockroach (Blattella germanica); experiment: Test Method 6: coated glass vial, German cockroach male adults; settings: 40 mg/m^2 coated vial, 3 days
Method: An acetone solution which is adjusted to 800 ppm of each test compound is poured into a 50 mL glass vial, and the test compound is coated uniformly on inner face of the vial so as to 40 mg/m^2 of the test compound treated, and the vial is then dried.
5 German cockroach (Blattella germanica) male adults are released into the treated vial, and the vial is then covered with lid. After the prescribed time, the state of the German cockroach is examined, and the mortality is calculated by the following equation.

[8] = tested on: housefly (Musca domestica); experiment: Test Method 8: coated glass vial, housefly female adults; settings: 40 mg/m^2 coated vial, 1 day
Method: An acetone solution which is adjusted to 800 ppm of each test compound is poured into a 20 mL glass vial, and the test compound is coated uniformly on inner face of the vial so as to 40 mg/m^2 of the test compound treated, and the vial is then dried.
5 housefly (Musca domestica) female adults are released into the treated vial, and the vial is then covered with lid. After the prescribed time, the state of the housefly is examined, and the mortality is calculated by the following equation.

| Compound | mortality at 200 ppm [1] [%] | mortality at 500 ppm [2] [%] | mortality at 50 ppm [1] [%] | controlling value ([3]; 250 ppm) [%] | controlling value ([3]; 1000 ppm) [%] | mortality at 200 ppm [4] [%] | mortality at 500 ppm [5] [%] | mortality at 200 ppm [6] [%] | mortality [7] [%] | mortality [8] [%] |
| --- | --- | --- | --- | --- | --- | --- | --- | --- | --- | --- |
| CN(C)S(=O)(=O)c1cc(Br)cnc1-n1nc2ccc(C(F)(F)F)cn2c1=O [Present compound 1] | ≥ 80 | ≥ 80 |  |  |  |  |  |  |  |  |
| CN(C)S(=O)(=O)c1c(-n2nc3ccc(C(F)(F)F)cn3c2=O)nc2ccc(Br)cn12 [Present compound 2] | ≥ 80 | ≥ 80 | ≥ 80 | 100 | 100 | ≥ 80 | ≥ 80 |  |  |  |
| CNS(=O)(=O)c1c(-c2nc3cc(C(F)(F)F)cnc3[nH]2)nc2ccc(C(F)(F)F)cn12 [Present compound 3] | ≥ 80 | ≥ 80 | ≥ 80 |  |  | ≥ 80 | ≥ 80 | 100 | 100 | 100 |
